Test results from patent US8871753B2, “Macrocyclic compounds and their use as kinase inhibitors” (Incyte Corporation, priority 2008, dated 2014).
Structures can show the parent of a compound that is named as a salt.

Columns and labels:
Type in all cases: biochemical
[1] = biological target: TYK2 (Homo sapiens, UniProt P29597); experiment: TYK2 kinase inhibition (Table A1)
[2] = biological target: T1, human JAK3 (a.a. 781-1124) (Homo sapiens, UniProt P52333); experiment: In vitro JAK kinase assay (HTRF, phosphorylation of a biotinylated peptide), JAK3; details: method AA1 (3 μM ATP) or AA2 (1000 μM ATP), not stated per value
T1 construct: JAK3 (a.a. 781-1124); His tag (N); made in house; host or cells: insect cells (baculovirus)
In short: (§1)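 Phosphorylation of a biotinylated peptide by the JAK kinase domain, detected by HTRF with Eu-Py20 and SA-APC. ATP was 90 μM for JAK1, 30 μM for JAK2 and 3 μM for JAK3. Reactions ran 1 h at room temperature and were stopped with EDTA, followed by 40 min antibody binding.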

[3] = biological target: T2, Recombinant Human Anaplastic Lymphoma Kinase (Homo sapiens, UniProt Q9UM73); experiment: ALK HTRF kinase assay; details: compound at 500 nM or 1 mM; 90 μM ATP
T2 construct: purchased Invitrogen, Carlsbad, Calif
In short: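 IC50 was obtained from a logistic fit of signal versus log inhibitor concentration, using pre- and post-transition baselines and a Hill slope. The signal reported tyrosine phosphorylation of a biotinylated peptide by recombinant human kinase, detected as Eu-to-APC energy transfer.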

[4] = biological target: T3, human JAK2 (a.a. 828-1132) (Homo sapiens, UniProt O60674); experiment: In vitro JAK kinase assay (HTRF, phosphorylation of a biotinylated peptide), JAK2; details: method AA1 (30 μM ATP) or AA2 (1000 μM ATP), not stated per value
T3 construct: JAK2 (a.a. 828-1132); His tag (N); made in house; host or cells: insect cells (baculovirus)
In short: as §1

[5] = biological target: T4, human JAK1 (a.a. 837-1142) (Homo sapiens, UniProt P23458); experiment: In vitro JAK kinase assay (HTRF, phosphorylation of a biotinylated peptide), JAK1; details: method AA1 (90 μM ATP) or AA2 (1000 μM ATP), not stated per value; read-out: JAK1 IC50
T4 construct: human JAK1 (a.a. 837-1142); His tag (N); made in house; host or cells: insect cells (baculovirus)
In short: as §1

T2 sequence (Q9UM73 19-1620): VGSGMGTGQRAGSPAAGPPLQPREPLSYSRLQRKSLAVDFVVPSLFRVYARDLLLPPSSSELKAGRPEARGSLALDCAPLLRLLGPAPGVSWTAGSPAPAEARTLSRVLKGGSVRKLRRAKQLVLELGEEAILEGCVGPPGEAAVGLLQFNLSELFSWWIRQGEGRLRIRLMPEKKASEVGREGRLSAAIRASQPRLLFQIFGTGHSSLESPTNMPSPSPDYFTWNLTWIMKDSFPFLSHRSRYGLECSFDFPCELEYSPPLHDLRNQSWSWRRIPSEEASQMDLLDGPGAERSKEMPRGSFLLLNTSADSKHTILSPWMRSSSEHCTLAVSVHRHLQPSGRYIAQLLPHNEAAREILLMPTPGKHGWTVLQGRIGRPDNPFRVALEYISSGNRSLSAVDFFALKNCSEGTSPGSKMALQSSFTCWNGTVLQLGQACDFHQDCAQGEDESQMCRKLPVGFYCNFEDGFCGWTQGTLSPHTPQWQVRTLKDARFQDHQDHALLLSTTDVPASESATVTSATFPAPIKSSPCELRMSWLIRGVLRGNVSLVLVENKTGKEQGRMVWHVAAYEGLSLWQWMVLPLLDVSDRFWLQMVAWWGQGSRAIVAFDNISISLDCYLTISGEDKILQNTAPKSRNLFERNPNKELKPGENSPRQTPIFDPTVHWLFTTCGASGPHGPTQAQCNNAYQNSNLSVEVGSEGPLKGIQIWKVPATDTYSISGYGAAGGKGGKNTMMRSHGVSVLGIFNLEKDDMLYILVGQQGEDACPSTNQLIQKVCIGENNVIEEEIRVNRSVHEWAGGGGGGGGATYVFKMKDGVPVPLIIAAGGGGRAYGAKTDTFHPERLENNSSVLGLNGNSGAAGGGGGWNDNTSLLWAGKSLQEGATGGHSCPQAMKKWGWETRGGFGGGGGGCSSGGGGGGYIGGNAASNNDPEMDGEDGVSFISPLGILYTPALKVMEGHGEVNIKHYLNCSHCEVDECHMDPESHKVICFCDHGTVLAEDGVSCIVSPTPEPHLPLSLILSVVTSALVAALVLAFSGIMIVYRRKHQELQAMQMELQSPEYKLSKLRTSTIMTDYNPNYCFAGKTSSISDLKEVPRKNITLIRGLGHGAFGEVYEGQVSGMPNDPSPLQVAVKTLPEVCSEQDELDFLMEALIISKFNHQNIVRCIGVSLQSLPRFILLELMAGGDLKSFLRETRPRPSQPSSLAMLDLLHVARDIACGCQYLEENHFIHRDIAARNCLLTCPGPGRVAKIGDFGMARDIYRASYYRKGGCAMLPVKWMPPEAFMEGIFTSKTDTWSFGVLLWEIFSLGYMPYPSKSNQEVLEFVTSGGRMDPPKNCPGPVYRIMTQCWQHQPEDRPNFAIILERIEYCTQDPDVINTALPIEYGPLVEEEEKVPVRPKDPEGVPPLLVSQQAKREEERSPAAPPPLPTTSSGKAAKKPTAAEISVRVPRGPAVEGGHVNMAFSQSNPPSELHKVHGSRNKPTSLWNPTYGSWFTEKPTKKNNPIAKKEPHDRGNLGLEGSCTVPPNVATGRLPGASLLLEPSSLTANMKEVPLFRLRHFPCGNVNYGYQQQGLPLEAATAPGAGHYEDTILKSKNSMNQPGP
T3 sequence (O60674 828-1132): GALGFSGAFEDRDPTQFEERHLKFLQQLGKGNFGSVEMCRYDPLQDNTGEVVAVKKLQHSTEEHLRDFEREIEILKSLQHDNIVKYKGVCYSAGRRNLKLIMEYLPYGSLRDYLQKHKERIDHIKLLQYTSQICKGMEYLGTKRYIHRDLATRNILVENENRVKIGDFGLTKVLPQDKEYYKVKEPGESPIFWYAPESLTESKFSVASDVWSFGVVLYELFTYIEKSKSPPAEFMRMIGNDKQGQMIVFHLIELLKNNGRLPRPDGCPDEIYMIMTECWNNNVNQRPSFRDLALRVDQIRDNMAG
TYK2, sequence (P29597 whole entry): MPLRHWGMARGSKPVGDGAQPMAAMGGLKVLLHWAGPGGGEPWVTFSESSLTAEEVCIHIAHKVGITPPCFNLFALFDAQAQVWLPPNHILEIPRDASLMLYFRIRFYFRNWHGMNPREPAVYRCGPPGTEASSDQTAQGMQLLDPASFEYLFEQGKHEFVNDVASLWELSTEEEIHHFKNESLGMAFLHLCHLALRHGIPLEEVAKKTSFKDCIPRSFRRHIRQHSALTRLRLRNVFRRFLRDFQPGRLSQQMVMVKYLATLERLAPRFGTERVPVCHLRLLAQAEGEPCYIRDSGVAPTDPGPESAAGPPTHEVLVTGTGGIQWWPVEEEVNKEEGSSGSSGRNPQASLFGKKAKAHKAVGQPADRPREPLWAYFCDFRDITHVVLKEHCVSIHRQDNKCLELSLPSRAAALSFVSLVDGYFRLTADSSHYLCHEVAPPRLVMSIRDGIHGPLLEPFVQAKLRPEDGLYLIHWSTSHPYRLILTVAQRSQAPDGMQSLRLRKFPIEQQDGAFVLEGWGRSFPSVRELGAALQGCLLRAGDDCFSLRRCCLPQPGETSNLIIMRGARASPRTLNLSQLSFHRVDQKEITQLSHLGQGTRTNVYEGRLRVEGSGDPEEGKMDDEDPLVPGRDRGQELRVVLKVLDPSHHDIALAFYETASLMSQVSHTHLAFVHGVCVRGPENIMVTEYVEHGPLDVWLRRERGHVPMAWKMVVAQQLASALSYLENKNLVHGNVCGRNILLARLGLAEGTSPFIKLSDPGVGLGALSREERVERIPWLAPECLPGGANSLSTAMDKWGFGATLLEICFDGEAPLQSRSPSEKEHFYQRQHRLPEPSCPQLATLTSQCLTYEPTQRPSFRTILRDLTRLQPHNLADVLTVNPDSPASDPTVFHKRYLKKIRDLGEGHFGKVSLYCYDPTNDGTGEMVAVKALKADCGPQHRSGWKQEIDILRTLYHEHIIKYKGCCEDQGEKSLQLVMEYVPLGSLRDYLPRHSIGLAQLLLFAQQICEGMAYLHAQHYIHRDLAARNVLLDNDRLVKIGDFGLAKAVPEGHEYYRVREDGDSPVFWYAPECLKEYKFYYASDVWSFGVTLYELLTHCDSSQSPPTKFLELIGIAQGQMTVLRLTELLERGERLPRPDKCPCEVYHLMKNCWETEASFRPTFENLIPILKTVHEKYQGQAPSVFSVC
T1 sequence (P52333 781-1124): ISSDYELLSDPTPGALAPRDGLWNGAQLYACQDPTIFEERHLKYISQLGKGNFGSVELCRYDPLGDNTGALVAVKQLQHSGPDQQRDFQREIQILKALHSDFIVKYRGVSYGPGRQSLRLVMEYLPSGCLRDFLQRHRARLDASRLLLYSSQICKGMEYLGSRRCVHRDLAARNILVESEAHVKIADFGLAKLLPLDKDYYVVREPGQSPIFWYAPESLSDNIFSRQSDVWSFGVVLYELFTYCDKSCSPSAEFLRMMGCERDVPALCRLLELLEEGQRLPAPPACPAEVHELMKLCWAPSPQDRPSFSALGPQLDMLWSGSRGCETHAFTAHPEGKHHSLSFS
T4 sequence (P23458 849-1154): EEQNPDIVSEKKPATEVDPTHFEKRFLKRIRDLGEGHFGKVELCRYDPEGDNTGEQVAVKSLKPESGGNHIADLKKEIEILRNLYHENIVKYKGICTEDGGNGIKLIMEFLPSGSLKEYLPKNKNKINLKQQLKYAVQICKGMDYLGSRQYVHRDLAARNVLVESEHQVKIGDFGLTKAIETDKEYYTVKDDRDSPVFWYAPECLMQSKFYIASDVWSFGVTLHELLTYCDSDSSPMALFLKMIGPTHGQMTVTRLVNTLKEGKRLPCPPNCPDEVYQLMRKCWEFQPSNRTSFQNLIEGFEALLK

Structure (SMILES)	IC50 [1] [nM]	IC50 [2] [nM]	ALK % of inhibition at a concentration of 500 nM or 1 mM [3] [%]	IC50 [4] [nM]	IC50 [5] [nM]
O=C(Nc1ccc2cc1CCc1cccc(c1)Nc1ncc(Cl)c(n1)N2)[C@@H]1CCCN1C(=O)Nc1ccccc1 [Example A69, (2S)—N(2)-[6-Chloro-2,4,8,22-tetraazatetracyclo[14.3.1.1(3,7).1(9,13)]docosa-1(20),3(22),4,6,9(21),10,12,16,18-nonaen-12-yl]-N(1)-phenylpyrrolidine-1,2-dicarboxamide trifluoroacetate]	39	16	27	7.7	41
CC(C)(C)OC(=O)N1CCC(CC(=O)Nc2ccc3cc2CCc2cncc(c2)Nc2ncc(Cl)c(n2)N3)CC1 [Example A70, tert-Butyl 4-(2-{[6-chloro-2,4,8,18,22-pentaazatetracyclo[14.3.1.1(3,7).1(9,13)]docosa-1(20),3(22),4,6,9(21),10,12,16,18-nonaen-12-yl]amino}-2-oxoethyl)piperidine-1-carboxylate bis(trifluoroacetate)]	110	195	18	57	20
O=C(CC1CCNCC1)Nc1ccc2cc1CCc1cncc(c1)Nc1ncc(Cl)c(n1)N2 [Example A71, N-[6-Chloro-2,4,8,18,22-pentaazatetracyclo[14.3.1.1(3,7).1(9,13)]docosa-1(20),3(22),4,6,9(21),10,12,16,18-nonaen-12-yl]-2-piperidin-4-ylacetamide tris(trifluoroacetate)]	57	112	26	69	19
NS(=O)(=O)N1CCC(C(=O)Nc2ccc3cc2CCc2cccc(c2)Nc2ncc(Cl)c(n2)N3)CC1 [Example A72, 1-(Aminosulfonyl)-N-[6-chloro-2,4,8,22-tetraazatetracyclo[14.3.1.1(3,7).1(9,13)]docosa-1(20),3(22),4,6,9(21),10,12,16,18-nonaen-12-yl]piperidine-4-carboxamide trifluoroacetate]	16	10	34	3.7	18
NS(=O)(=O)N1CCCC(C(=O)Nc2ccc3cc2CCc2cccc(c2)Nc2ncc(Cl)c(n2)N3)C1 (centres unmarked) [Example A73, 1-(Aminosulfonyl)-N-[6-chloro-2,4,8,22-tetraazatetracyclo[14.3.1.1(3,7).1(9,13)]docosa-1(20),3(22),4,6,9(21),10,12,16,18-nonaen-12-yl]piperidine-3-carboxamide trifluoroacetate]	8	3	49	0.7	10
NS(=O)(=O)N1CC[C@@H](C(=O)Nc2ccc3cc2CCc2cccc(c2)Nc2ncc(Cl)c(n2)N3)C1 [Example A74, (3R)-1-(Aminosulfonyl)-N-[6-chloro-2,4,8,22-tetraazatetracyclo[14.3.1.1(3,7).1(9,13)]docosa-1(20),3(22),4,6,9(21),10,12,16,18-nonaen-12-yl]pyrrolidine-3-carboxamide trifluoroacetate]	17	3.3	48	3	6
NS(=O)(=O)N1CCC(CC(=O)Nc2ccc3cc2CCc2cccc(c2)Nc2ncc(Cl)c(n2)N3)CC1 [Example A75, 2-[1-(Aminosulfonyl)piperidin-4-yl]-N-[6-chloro-2,4,8,22-tetraazatetracyclo[14.3.1.1(3,7).1(9,13)]docosa-1(20),3(22),4,6,9(21),10,12,16,18-nonaen-12-yl]acetamide trifluoroacetate]	0.3	3.2	51	0.2	0.2
CC(=O)N1CCC(CC(=O)Nc2ccc3cc2CCc2cncc(c2)Nc2ncc(Cl)c(n2)N3)CC1 [Example A76, 2-(1-Acetylpiperidin-4-yl)-N-[6-chloro-2,4,8,18,22-pentaazatetracyclo[14.3.1.1(3,7).1(9,13)]docosa-1(20),3(22),4,6,9(21),10,12,16,18-nonaen-12-yl]acetamide bis(trifluoroacetate)]	3.9	124	21	4.1	2
O=C(CC1CCN(C(=O)Nc2ccccc2)CC1)Nc1ccc2cc1CCc1cncc(c1)Nc1ncc(Cl)c(n1)N2 [Example A77, 4-(2-{[6-Chloro-2,4,8,18,22-pentaazatetracyclo[14.3.1.1(3,7).1(9,13)]docosa-1(20),3(22),4,6,9(21),10,12,16,18-nonaen-12-yl]amino}-2-oxoethyl)-N-phenylpiperidine-1-carboxamide bis(trifluoroacetate)]	4	35	35	0.7	0.6

More lines, now with the values ahead:

IC50 [1] [nM]	IC50 [2] [nM]	ALK % of inhibition at a concentration of 500 nM or 1 mM [3] [%]	IC50 [4] [nM]	IC50 [5] [nM]	Structure (SMILES)
0.3	12	39	0.3	0.4	NS(=O)(=O)N1CCC(CC(=O)Nc2ccc3cc2CCc2cncc(c2)Nc2ncc(Cl)c(n2)N3)CC1 [Example A78, 2-[1-(Aminosulfonyl)piperidin-4-yl]-N-[6-chloro-2,4,8,18,22pentaazatetracyclo[14.3.1.1(3,7).1(9,13)]docosa-1(20),3(22),4,6,9(21),10,12,16,18-nonaen-12-yl]acetamide bis(trifluoroacetate)]
3.6	46	33	1.9	0.5	CS(=O)(=O)N1CCC(CC(=O)Nc2ccc3cc2CCc2cncc(c2)Nc2ncc(Cl)c(n2)N3)CC1 [Example A79, N-[6-Chloro-2,4,8,18,22-pentaazatetracyclo[14.3.1.1(3,7).1(9,13)]docosa-1(20),3(22),4,6,9(21),10,12,16,18-nonaen-12-yl]-2-[1-(methylsulfonyl)piperidin-4-yl]acetamide bis(trifluoroacetate)]
5.3	62	21	4.4	8.1	CN(C)C(=O)N1CCC(CC(=O)Nc2ccc3cc2CCc2cccc(c2)Nc2ncc(Cl)c(n2)N3)CC1 [Example A80, 4-(2-{[6-Chloro-2,4,8,22-tetraazatetracyclo[14.3.1.1(3,7).1(9,13)]docosa-1(20),3(22),4,6,9(21),10,12,16,18-nonaen-12-yl]amino}-2-oxoethyl)-N,N-dimethylpiperidine-1-carboxamide trifluoroacetate]
4.3	24	29	1.6	4.7	CN(C)S(=O)(=O)N1CCC(CC(=O)Nc2ccc3cc2CCc2cccc(c2)Nc2ncc(Cl)c(n2)N3)CC1 [Example A81, N-[6-Chloro-2,4,8,22-tetraazatetracyclo[14.3.1.1(3,7).1(9,13)]docosa-1(20),3(22),4,6,9(21),10,12,16,18-nonaen-12-yl]-2-{1-[(dimethylamino)sulfonyl]piperidin-4-yl}acetamide trifluoroacetate]
